Assay results published in patent US20260356860A1, “2-SUBSTITUTED 3,4A,5,7,8,8A-HEXAHYDRO-4H-THIOPYRANO[4,3-DJPYRIMIDIN-4-ONES FOR WOUND TREATMENT” (priority 2022, published 2026).

How the values were obtained:
[1] = test system: HEK293 SuperTOPFlash reporter cells, Wnt promoter; assay: HEK CELL Wnt Assay (luciferase reporter); format: cell-based; conditions: for IC50: serial dilutions, with or without 50 ng/mL Wnt3a, 18 h
Protocol: In order to determine the effect of the compounds of Formula (I) on Wnt inhibition, an in vitro assay using HEK293 SuperTOPFlash reporter cells, with the Wnt promoter driving a luciferase reporter gene, were utilized. 40,000 HEK293 SuperTOPFlash reporter cells were seeded, per well, in a 48 well plate for 24 hours, prior to administration of serial dilutions of the compound of Formula (I) to individual wells. Serial dilutions ranging from […] to 1 nM of the compound of Formula (I) were added with or without 50 ng/mL Wnt3a (Time Biosciences) and allowed to incubate with the reporter cells for 18 hours. Reporter cells with no treatment were used as negative control.

[2] = biological target: T1, Tankyrase 2 (TNKS2) (Homo sapiens, UniProt Q9H2K2); assay: TNK2 Binding Assay (Tankyrase 2 ribosylation, chemiluminescence); format: biochemical
T1 sequence (Q9H2K2 1-1166): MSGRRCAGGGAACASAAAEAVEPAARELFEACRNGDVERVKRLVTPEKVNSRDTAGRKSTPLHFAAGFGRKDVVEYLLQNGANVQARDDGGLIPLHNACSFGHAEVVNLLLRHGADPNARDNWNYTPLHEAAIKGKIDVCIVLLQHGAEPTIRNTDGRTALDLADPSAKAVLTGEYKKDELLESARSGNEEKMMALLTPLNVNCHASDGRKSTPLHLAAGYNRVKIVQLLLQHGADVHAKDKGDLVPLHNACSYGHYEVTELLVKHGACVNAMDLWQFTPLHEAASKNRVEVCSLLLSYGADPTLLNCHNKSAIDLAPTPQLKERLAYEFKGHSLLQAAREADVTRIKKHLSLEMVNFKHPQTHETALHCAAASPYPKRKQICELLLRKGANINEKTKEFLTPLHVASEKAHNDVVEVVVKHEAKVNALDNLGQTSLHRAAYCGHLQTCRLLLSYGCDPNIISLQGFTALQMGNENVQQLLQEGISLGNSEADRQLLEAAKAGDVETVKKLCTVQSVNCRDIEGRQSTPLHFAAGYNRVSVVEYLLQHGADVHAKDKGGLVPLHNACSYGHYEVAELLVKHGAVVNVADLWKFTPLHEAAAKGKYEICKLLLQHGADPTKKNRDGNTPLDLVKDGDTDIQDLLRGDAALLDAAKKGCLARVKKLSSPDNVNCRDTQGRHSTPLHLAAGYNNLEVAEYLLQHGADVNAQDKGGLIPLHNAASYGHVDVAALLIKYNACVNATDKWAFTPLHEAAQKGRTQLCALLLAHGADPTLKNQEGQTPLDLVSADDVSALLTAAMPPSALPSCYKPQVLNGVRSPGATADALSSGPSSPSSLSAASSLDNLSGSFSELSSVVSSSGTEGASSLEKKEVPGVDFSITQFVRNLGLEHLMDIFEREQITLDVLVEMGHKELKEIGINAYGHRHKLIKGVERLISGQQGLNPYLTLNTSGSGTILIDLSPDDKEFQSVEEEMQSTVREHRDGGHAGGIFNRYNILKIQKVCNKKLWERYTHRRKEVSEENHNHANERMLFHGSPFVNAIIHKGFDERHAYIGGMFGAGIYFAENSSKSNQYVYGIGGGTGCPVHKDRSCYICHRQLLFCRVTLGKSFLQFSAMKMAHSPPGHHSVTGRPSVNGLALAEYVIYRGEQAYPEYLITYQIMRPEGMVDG
Protocol: Tankyrase 2 assay (n=3) was performed with the following steps: step 1, coating a 96-well plate with 50 μL/well of histone solution; step 2, conducting ribosylation reaction; and step 3, detection.
Step 1: Coating a 96-Well Plate with 50 μL/Well of Histone Solution.
A 5× histone mixture was diluted 1:5 with PBS to make a 1× histone in PBS mixture. 50 μL of the histone mixture was added to each well and incubated at 4° C. overnight. The plate was washed three times using 200 μL PBST buffer (1×PBS containing 0.05% Tween*20 (polysorbate 20) per well. The plate was tapped onto a clean paper towel to remove the liquid. The wells were blocked by adding 200 μL of blocking buffer 3 to each well. The plate was incubated at room temperature for at least 90 minutes. The plate was washed three times with 200 μL PBST buffer. The plate was tapped onto a clean paper towel to remove the liquid.
A fresh solution of 10 mM DTT in water was prepared.
A master mix was prepared and delivered to each well (25 μL/well). Master mix delivered to each well: (2.5 μL of 10×PARP assay buffer (purchased from BPS Bioscience)+2.5 μL of PARP substrate mixture 2+17.5 μL of water+2.5 μL of 10 mM fresh DTT). The concentration of DTT in the master mix was 1 mM. 25 μL of master mix was added to each well.
1×PARP buffer with DTT was prepared. 10×PARP assay buffer was diluted to 1×PARP assay buffer containing DTT by adding 1 volume of 10×PARP assay buffer+1 volume of 10 mM DTT+8 volumes of water. The concentration of DTT in the 1×PARP assay buffer was 1 mM.
5 μL of a test inhibitor was added to each well labeled as “Test Inhibitor.” For the “Positive Control,” the PARP inhibitor, XAV939, was used. For the negative control, no inhibitor is added to the assay mix.
The Tankyrase 2 (TNKS2) enzyme on ice was thawed. The tube containing the enzyme was spun briefly to recover the full content of the tube. The amount of TNKS2 enzyme required for the assay was calculated and the enzyme was diluted to 0.5 ng/μL with 1×PARP assay buffer with DTT. 16) The final concentration of TNKS2 enzyme in the assay was 2 nM. The reaction was initiated by adding 10 μL of diluted TNKS2 enzyme to each well designated “Positive Control” and “Test Inhibitor.” To each well designated as “Blank,” 10 μL of 1×PARP assay buffer with DTT was added. The plate was incubated at room temperature for 1 hour. The plate was washed three times with 100 μL of PBST buffer and the plate was tapped onto a clean paper towel.
1) Streptavidin-HRP was diluted 1:50 in Blocking buffer (purchased from BPS Bioscience) 3.50 μL of diluted Streptavidin-RP was added to each well and incubated for 30 minutes at room temperature. The plate was washed three times with 100 μL of PBST buffer and tapped onto a clean paper towel. Just before use, 1 volume of ELISA ECL Substrate A and 1 volume of ELISA ECL Substrate B were mixed on ice; and 100 μL was added to each well. Immediately, the plate was read in a luminometer or microtiter-plate reader capable of reading chemiluminescence. The “Blank” value was subtracted from all other values.

| SMILES | IC50 [2] [µM] | solubility remark in HEK CELL Wnt assay [1] | IC50 [1] [µM] |
| --- | --- | --- | --- |
| O=c1[nH]c(-c2ccc3c(c2)COB3O)nc2c1CSCC2 [Compound 3, 2-(1-hydroxy-1,3-dihydrobenzo[c][1,2]oxaborol-5-yl)-7,8-dihydro-3H-thiopyrano [4,3-d]pyrimidin-4 (5H)-one] | 0.028 |  | 7.5 |
| O=c1[nH]c(/C=C/c2ccc(C(F)(F)F)cc2)nc2c1CSCC2 [Compound 6, (E)-2-(4-(trifluoromethyl)styryl)-3,5,7,8-tetrahydro-4H-thiopyrano[4,3-d]pyrimidin-4-one] | 2.5 |  | 2 |
| [2H]C1([2H])CSCc2c1nc(-c1ccc(C(F)(F)F)cc1)[nH]c2=O [Compound 13, 2-(4-(trifluoromethyl)phenyl)-3,5,7,8-tetrahydro-4H-thiopyrano[4,3-d]pyrimidin-4-one-8,8-d2] |  |  | 0.004 |
| O=c1[nH]c(-c2cc(F)c(B(O)O)c(F)c2)nc2c1CSCC2 [Compound 14, (2,6-difluoro-4-(4-oxo-3,5,7,8-tetrahydro-4H-thiopyrano[4,3-d]pyrimidin-2-yl)phenyl)boronic acid] | 0.011 |  | 8 |
| COCCOC(C)(C)c1c(F)cc(-c2nc3c(c(=O)[nH]2)CSCC3)cc1F [Compound 16, 2-(3,5-difluoro-4-(2-(2-methoxyethoxy)propan-2-yl)phenyl)-3,5,7,8-tetrahydro-4H-thiopyrano[4,3-d]pyrimidin-4-one] | 0.05 |  | 0.4 |
| O=c1[nH]c(-c2cc(F)c(-c3ccc(Br)nc3)c(F)c2)nc2c1CSCC2 [Compound 21, 2-(4-(6-bromopyridin-3-yl)-3,5-difluorophenyl)-3,5,7,8-tetrahydro-4H-thiopyrano[4,3-d]pyrimidin-4-one] | 0.012 |  | 2 |
| O=c1[nH]c(-c2c(F)cc(-c3ccc(B(O)O)cc3)cc2F)nc2c1CSCC2 [Compound 25, (3′,5′-difluoro-4′-(4-oxo-3,5,7,8-tetrahydro-4H-thiopyrano[4,3-d]pyrimidin-2-yl)-[1,1′-biphenyl]-4-yl)boronic acid] | 0.063 |  | 2.5 |
| O=c1[nH]c(-c2ccc(-c3ccc(B(O)O)cc3)cc2O)nc2c1CSCC2 [Compound 26, (3′-hydroxy-4′-(4-oxo-3,5,7,8-tetrahydro-4H-thiopyrano[4,3-d]pyrimidin-2-yl)-[1,1′-biphenyl]-4-yl)boronic acid] | 0.024 |  | 0.652 |
| COC(=O)NCCOC(C)(C)c1ccc(-c2ccc(-c3nc4c(c(=O)[nH]3)CSCC4)cc2)cc1 [Compound 29, methyl (2-((2-(4′-(4-oxo-3,5,7,8-tetrahydro-4H-thiopyrano[4,3-d]pyrimidin-2-yl)-[1,1′-biphenyl]-4-yl)propan-2-yl)oxy)ethyl)carbamate] | 0.001 |  | 0.1 |
| N#Cc1ccc(-c2nc3c(c(=O)[nH]2)CSCC3)cc1 [Compound 43, 4-(4-oxo-3,5,7,8-tetrahydro-4H-thiopyrano[4,3-d]pyrimidin-2-yl)benzonitrile] |  |  | 1 |

The next lines start with results.

| IC50 [2] [µM] | solubility remark in HEK CELL Wnt assay [1] | SMILES | IC50 [1] [µM] |
| --- | --- | --- | --- |
| 0.013 |  | O=c1[nH]c(-c2ccc(-c3nc4c(c(=O)[nH]3)CSCC4)cc2)no1 [Compound 4, 3-(4-(4-oxo-3,5,7,8-tetrahydro-4H-thiopyrano[4,3-d]pyrimidin-2-yl)phenyl)-1,2,4-oxadiazol-5 (4H)-one] | > 10 |
| 0.021 | solubility issue | O=c1[nH]c(-c2ccc(-c3cnc(OCCO)nc3)cc2)nc2c1CSCC2 [Compound 11, 2-(4-(2-(2-hydroxyethoxy)pyrimidin-5-yl)phenyl)-3,5,7,8-tetrahydro-4H-thiopyrano[4,3-d]pyrimidin-4-one] | 0.1 |
| 0.0065 |  | CC(C)(OCCO)c1ccc(-c2ccc(-c3nc4c(c(=O)[nH]3)CSCC4)cc2)cc1 [Compound 12, 2-(4′-(2-(2-hydroxyethoxy)propan-2-yl)-[1,1′-biphenyl]-4-yl)-3,5,7,8-tetrahydro-4H-thiopyrano[4,3-d]pyrimidin-4-one] | 0.003 |
| 0.003 |  | COCCOC(C)(C)c1ccc(-c2nc3c(c(=O)[nH]2)CSCC3)cc1 [Compound 17, 2-(4-(2-(2-methoxyethoxy)propan-2-yl)phenyl)-3,5,7,8-tetrahydro-4H-thiopyrano[4,3-d]pyrimidin-4-one] | 0.06 |
| 0.04 |  | O=c1[nH]c(-c2ccc(-c3ccc(Br)nc3)nc2)nc2c1CSCC2 [Compound 19, 2-(6′-bromo-[2,3′-bipyridin]-5-yl)-3,5,7,8-tetrahydro-4H-thiopyrano[4,3-d]pyrimidin-4-one] | 2.5 |
| 0.004 |  | O=c1[nH]c(-c2ccc(-c3ccc(B(O)O)cn3)cc2)nc2c1CSCC2 [Compound 22, (6-(4-(4-oxo-3,5,7,8-tetrahydro-4H-thiopyrano[4,3-d]pyrimidin-2-yl)phenyl)pyridin-3-yl)boronic acid] | 0.25 |
| 0.003 |  | O=c1[nH]c(-c2ccc(-c3ncc(B(O)O)cn3)cc2)nc2c1CSCC2 [Compound 24, (2-(4-(4-oxo-3,5,7,8-tetrahydro-4H-thiopyrano[4,3-d]pyrimidin-2-yl)phenyl)pyrimidin-5-yl)boronic acid] | 0.5 |
| 0.002 |  | O=c1[nH]c(-c2ccc(-c3ccc(B(O)O)c(O)c3)cc2)nc2c1CSCC2 [Compound 27, (3-hydroxy-4′-(4-oxo-3,5,7,8-tetrahydro-4H-thiopyrano[4,3-d]pyrimidin-2-yl)-[1,1′-biphenyl]-4-yl)boronic acid] | 0.036 |
| 0.002 |  | O=c1[nH]c(-c2ccc(-c3ccc(B(O)O)cc3O)cc2)nc2c1CSCC2 [Compound 28, (2-hydroxy-4′-(4-oxo-3,5,7,8-tetrahydro-4H-thiopyrano[4,3-d]pyrimidin-2-yl)-[1,1′-biphenyl]-4-yl)boronic acid] | 0.002 |
